Assay results reported in patent US7799781B2, “5,6,7,8-tetrahydropteridine derivatives as HSP90 inhibitors” (AstraZeneca AB, priority 2007, dated 2010).

Target: T1, HSP90α (Homo sapiens, UniProt P07900)
T1 construct: 6H is tagged HSP90α protein (amino acids 2-732) expressed in E. coli; 6His; made in house; host or cells: E. coli
Assay: Test (a) In Vitro Binding Assay (fluorescence polarisation, binding to the ATP pocket of HSP90α)
Conditions: FP probe displacement, geometric mean where tested more than once
Description: Test (a) In Vitro Binding Assay
Test (a) measures the ability of a compound to bind to the ATP pocket of HSP90α. 6H is tagged HSP90α protein (amino acids 2-732) expressed in E. coli was purified and stored at −80° C. in aliquots. Assay measurements were performed in assay buffer comprising 20 mM HEPES pH 7.4, 50 mM KCl, 20 mM NaHMoO4, 0.01% Nonidet P40, 2 mM DTT and 0.1 mg/ml BSA. Following resuspension in DMSO, the FP probe 3-[[5-(5-ethyl-2,4-dihydroxy-phenyl)-4-(4-methoxyphenyl)2H-pyrazole-3-carbonyl]amino]propyl-Cy3B-amide; 14-(2-{[3-({[3-(5-ethyl-2,4-dihydroxyphenyl)-4-(4-methoxyphenyl)-1H-pyrazol-5-yl]carbonyl}amino)propyl]amino}-2-oxoethyl)-16,16,18,18-tetramethyl-2-sulfo-6,7,7a,8a,9,10,16,18-octahydrobenzo[2″,3″]indolizino [8″,7″:5′,6′]pyrano[3′,2′:3,4]pyrido[1,2-a]indol-5-ium) was diluted to a final concentration of 5 nM in assay buffer. Test compounds were prepared by dilution in 100% DMSO to give the appropriate dose range and dispensed into a 384 well assay plate as a 6X concentrate. Upon addition of recombinant HSP90α to a final assay concentration of 1 μg/ml, FP probe was added and plates incubated at room temperature for 1 to 4 hours. Final DMSO concentration was 1% in a total assay volume of 18 μl. Fluorescence Polarisation measurements were made using a Tecan Ultra plate reader using an excitation wavelength of 530 nm and an emission wavelength of 590 nm. Millipolarisation (mP) values were estimated using Xfluor software.
The data in the above table was generated in an assay substantially as described above in relation to in-vitro Binding Assay (a). Some of the compounds shown in the table were tested more than once in the assay. For those compounds the IC50 value shown is the geometric mean of the measured IC50 values. Therefore, as will be understood, the IC50 values quoted above are not absolute and further measurements of the IC50 values may result in a different mean IC50 value.

Row | SMILES | IC50 [nM]
1 | COc1c(C)cnc(CN2c3nc(N)ncc3NC(=O)[C@H]2CC(=O)O)c1C [Example 12, {(7R)-2-amino-8-[(4-methoxy-3,5-dimethylpyridin-2-yl)methyl]-6-oxo-5,6,7,8-tetrahydropteridin-7-yl}acetic acid] | 7340
2 | COc1c(C)cnc(CN2c3nc(N)ncc3NC(=O)[C@H]2CC(N)=O)c1C [Example 13, 2-{(7R)-2-amino-8-[(4-methoxy-3,5-dimethylpyridin-2-yl)methyl]-6-oxo-5,6,7,8-tetrahydropteridin-7-yl}acetamide] | 1750
3 | COc1c(C)cnc(CN2CC(=O)Nc3c(C)nc(N)nc32)c1C [Example 15, 2-amino-8-[(4-methoxy-3,5-dimethyl-pyridin-2-yl)methyl]-4-methyl-5,7-dihydropteridin-6-one] | 808

Now from value to compound:

Row | IC50 [nM] | SMILES
4 | 1630 | COc1c(C)cnc(CN2c3nc(N)ncc3NC(=O)[C@H]2CC(=O)NCCCN(C)C)c1C [Example 14.1, 2-{(7R)-2-amino-8-[(4-methoxy-3,5-dimethylpyridin-2-yl)methyl]-6-oxo-5,6,7,8-tetrahydropteridin-7-yl}-N-[3-(dimethylamino)propyl]acetamide]
5 | 1620 | COc1c(C)cnc(CN2c3nc(N)ncc3NC(=O)[C@H]2CC(=O)NCCN(C)C)c1C [Example 14.2, 2-{(7R)-2-amino-8-[(4-methoxy-3,5-dimethylpyridin-2-yl)methyl]-6-oxo-5,6,7,8-tetrahydropteridin-7-yl}-N-[2-(dimethylamino)ethyl]acetamide]
